Key:
Experiment in all cases: radiometric filter-binding kinase assay
[1] = target: STK33 (human) (UniProt Q9BYT3)
[2] = target: TTBK1 (human) (UniProt Q5TCY1)
[3] = target: PRKCG (human) (UniProt P05129)
[4] = target: DDR2 (human) (UniProt Q16832)
[5] = target: STK16 (human) (UniProt O75716)
[6] = target: TESK1 (human) (UniProt Q15569)
[7] = target: SIK2 (human) (UniProt Q9H0K1)
[8] = target: PTK6 (human) (UniProt Q13882)
[9] = test system: OXSR1 (human), O95747 [T185E]
[10] = target: MAP4K5 (human) (UniProt Q9Y4K4)
[11] = target: MYLK (human) (UniProt Q15746)
[12] = target: TLK1 (human) (UniProt Q9UKI8)
[13] = target: ULK2 (human) (UniProt Q8IYT8)
[14] = target: CDK9 CCNT1 (human) (UniProt P50750+O60563)
[15] = test system: TGFBR1 (human), P36897 [T204D]
[16] = target: ABL1 (human) (UniProt P00519)
[17] = target: WNK1 (human) (UniProt Q9H4A3)
[18] = target: STK24 (human) (UniProt Q9Y6E0)
[19] = target: MAP4K3 (human) (UniProt Q8IVH8)
[20] = target: SIK3 (human) (UniProt Q9Y2K2)
[21] = target: TEK (human) (UniProt Q02763)
[22] = target: PRKAA1 PRKAB2 PRKAG1 (human) (UniProt O43741+Q13131+P54619)
[23] = target: ULK1 (human) (UniProt O75385)
[24] = target: TSSK1B (human) (UniProt Q9BXA7)
[25] = target: CSNK1G2 (human) (UniProt P78368)
[26] = target: ZAP70 (human) (UniProt P43403)
[27] = target: TTBK2 (human) (UniProt Q6IQ55)
[28] = target: IRAK1 (human) (UniProt P51617)
[29] = target: EIF2AK3 (human) (UniProt Q9NZJ5)
[30] = target: MAPK7 (human) (UniProt Q13164)
[31] = target: PDGFRA (human) (UniProt P16234)

TSSK1B (human), sequence (Q9BXA7 whole entry, looked up): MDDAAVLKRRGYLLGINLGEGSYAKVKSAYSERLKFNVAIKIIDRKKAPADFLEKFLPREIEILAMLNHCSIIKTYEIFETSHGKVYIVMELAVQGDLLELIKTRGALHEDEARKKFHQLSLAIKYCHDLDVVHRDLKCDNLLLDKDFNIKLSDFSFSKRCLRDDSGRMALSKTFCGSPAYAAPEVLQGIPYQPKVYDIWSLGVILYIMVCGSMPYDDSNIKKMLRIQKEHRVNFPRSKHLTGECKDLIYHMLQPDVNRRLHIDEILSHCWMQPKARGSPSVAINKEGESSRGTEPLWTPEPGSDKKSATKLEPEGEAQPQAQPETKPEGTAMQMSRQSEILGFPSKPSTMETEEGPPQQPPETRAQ
CDK9 CCNT1 (human), sequence (O60563 whole entry, looked up): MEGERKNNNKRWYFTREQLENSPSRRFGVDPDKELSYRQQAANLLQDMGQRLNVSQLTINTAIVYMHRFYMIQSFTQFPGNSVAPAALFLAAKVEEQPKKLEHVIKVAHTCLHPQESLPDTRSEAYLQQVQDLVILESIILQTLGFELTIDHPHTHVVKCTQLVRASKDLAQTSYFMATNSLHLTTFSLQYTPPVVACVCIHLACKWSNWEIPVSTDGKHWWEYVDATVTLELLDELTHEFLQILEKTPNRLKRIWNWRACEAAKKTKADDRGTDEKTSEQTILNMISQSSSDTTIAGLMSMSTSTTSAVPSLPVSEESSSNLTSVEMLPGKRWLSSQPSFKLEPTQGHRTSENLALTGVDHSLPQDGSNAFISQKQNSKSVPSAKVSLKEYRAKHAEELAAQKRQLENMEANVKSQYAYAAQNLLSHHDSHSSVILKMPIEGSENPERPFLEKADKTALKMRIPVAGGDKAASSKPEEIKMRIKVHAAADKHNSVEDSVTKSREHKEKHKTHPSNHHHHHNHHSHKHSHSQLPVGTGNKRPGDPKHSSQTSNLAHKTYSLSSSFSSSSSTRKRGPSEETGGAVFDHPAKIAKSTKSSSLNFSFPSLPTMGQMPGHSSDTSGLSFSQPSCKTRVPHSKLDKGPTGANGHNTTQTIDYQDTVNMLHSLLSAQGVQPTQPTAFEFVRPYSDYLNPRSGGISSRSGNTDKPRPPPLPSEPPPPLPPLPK
CDK9 CCNT1 (human), sequence (P50750 whole entry, looked up): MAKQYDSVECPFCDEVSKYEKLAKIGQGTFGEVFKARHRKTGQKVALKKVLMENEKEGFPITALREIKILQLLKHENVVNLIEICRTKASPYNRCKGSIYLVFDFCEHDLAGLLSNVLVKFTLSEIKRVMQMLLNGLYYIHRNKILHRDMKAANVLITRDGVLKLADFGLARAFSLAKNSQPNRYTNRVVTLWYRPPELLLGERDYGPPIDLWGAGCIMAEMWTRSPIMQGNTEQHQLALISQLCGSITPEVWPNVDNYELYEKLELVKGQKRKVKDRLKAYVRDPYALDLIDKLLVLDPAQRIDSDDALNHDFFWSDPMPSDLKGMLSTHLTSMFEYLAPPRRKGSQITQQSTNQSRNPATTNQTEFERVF
WNK1 (human), sequence (Q9H4A3 whole entry, looked up): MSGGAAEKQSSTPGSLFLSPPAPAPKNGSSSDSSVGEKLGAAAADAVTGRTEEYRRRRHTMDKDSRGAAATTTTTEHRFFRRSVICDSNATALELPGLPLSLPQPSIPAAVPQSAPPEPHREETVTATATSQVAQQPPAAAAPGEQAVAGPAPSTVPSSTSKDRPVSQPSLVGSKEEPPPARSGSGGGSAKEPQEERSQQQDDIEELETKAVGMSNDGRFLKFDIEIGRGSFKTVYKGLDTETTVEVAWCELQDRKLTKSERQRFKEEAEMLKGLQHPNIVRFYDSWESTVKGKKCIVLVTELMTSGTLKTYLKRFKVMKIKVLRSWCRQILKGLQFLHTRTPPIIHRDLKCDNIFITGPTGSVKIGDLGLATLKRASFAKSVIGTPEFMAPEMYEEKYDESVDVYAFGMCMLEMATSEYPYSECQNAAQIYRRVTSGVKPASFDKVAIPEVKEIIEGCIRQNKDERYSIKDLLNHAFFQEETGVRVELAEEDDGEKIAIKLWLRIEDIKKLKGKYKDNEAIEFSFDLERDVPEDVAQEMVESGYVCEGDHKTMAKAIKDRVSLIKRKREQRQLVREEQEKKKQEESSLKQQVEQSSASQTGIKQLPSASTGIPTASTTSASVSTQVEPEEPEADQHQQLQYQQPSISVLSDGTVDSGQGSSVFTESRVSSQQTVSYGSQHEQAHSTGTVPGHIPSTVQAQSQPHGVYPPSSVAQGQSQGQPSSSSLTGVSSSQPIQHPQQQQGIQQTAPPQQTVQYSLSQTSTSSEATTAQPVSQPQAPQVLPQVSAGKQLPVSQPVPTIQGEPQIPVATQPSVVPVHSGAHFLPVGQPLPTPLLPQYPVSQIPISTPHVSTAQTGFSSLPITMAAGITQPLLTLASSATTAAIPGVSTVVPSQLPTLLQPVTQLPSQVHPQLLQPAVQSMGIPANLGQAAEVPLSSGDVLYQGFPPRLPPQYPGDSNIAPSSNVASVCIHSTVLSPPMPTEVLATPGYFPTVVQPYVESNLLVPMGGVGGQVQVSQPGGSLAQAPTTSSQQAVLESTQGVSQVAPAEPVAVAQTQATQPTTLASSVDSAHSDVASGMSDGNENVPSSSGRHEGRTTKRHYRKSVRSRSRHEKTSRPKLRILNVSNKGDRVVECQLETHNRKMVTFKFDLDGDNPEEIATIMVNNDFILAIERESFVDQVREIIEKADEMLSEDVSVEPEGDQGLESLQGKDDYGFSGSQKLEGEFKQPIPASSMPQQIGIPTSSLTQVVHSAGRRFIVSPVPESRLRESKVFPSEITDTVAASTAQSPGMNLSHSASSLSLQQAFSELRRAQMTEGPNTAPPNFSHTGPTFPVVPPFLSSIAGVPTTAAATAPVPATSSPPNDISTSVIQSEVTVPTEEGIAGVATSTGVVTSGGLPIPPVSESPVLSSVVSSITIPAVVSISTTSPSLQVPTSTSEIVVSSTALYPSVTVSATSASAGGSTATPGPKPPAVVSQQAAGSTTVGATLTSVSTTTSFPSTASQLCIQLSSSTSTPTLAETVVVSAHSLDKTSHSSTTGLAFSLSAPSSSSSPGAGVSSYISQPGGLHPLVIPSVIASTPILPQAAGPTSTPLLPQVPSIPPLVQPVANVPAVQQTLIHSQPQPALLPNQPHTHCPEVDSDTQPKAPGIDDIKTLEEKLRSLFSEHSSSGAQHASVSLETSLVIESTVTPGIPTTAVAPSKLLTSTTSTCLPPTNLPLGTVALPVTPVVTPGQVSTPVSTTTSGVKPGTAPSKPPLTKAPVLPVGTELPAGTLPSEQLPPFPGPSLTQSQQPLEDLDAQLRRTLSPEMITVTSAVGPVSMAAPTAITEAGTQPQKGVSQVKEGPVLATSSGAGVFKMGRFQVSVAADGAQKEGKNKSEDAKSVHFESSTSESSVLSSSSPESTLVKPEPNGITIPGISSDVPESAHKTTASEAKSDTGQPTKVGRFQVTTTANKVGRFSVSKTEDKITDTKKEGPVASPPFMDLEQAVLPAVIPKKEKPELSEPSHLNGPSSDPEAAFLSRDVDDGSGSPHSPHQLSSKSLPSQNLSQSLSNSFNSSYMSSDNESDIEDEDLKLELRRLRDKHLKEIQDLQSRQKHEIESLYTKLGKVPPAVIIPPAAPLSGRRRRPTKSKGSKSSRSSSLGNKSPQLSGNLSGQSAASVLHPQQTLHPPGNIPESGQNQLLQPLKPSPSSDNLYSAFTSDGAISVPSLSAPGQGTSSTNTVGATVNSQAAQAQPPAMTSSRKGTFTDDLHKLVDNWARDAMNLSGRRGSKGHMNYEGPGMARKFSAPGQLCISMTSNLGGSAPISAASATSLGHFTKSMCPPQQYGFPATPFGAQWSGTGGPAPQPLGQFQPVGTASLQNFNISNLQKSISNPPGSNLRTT
IRAK1 (human), sequence (P51617 whole entry, looked up): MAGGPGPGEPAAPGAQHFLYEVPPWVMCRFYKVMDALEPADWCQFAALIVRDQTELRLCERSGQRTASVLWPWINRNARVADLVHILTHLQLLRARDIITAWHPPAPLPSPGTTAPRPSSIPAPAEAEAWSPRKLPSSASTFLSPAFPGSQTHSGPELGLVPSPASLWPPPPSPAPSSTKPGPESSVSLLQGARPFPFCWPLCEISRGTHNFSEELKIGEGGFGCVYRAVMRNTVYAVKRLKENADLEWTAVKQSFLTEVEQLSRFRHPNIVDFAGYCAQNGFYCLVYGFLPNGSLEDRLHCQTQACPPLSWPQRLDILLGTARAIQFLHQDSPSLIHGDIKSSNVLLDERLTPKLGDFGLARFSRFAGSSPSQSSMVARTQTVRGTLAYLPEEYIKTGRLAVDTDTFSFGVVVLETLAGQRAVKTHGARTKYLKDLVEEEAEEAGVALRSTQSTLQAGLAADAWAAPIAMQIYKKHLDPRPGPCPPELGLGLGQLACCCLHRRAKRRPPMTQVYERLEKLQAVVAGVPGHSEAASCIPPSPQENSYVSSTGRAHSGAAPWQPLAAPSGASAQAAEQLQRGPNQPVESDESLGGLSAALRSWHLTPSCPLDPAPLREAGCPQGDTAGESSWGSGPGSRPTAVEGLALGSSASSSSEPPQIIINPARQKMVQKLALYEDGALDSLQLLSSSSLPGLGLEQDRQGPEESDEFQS
STK33 (human), sequence (Q9BYT3 whole entry, looked up): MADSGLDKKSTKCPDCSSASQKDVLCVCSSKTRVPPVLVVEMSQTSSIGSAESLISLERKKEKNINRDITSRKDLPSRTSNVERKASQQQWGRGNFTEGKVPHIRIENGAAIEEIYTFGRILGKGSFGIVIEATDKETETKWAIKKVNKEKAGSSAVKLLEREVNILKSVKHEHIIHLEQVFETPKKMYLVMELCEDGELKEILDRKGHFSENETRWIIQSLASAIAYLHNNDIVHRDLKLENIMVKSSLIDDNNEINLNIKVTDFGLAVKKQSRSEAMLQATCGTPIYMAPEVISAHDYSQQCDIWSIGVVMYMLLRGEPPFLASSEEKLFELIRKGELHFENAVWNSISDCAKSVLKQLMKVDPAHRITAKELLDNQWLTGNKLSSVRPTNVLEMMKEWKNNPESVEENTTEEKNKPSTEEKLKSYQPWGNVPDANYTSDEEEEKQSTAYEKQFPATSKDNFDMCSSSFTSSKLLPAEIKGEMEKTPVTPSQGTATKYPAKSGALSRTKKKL

residual activity ([1]; compound 10.0 µM): 93%
residual activity ([1]; compound 100.0 µM): 99%
residual activity ([1]; compound 1000.0 µM): 102%
residual activity ([2]; compound 10.0 µM): 88%
residual activity ([2]; compound 100.0 µM): 101%
residual activity ([3]; compound 10.0 µM): 106%
residual activity ([3]; compound 100.0 µM): 113%
residual activity ([3]; compound 1000.0 µM): 114%
residual activity ([4]; compound 10.0 µM): 103%
residual activity ([4]; compound 100.0 µM): 100%
residual activity ([5]; compound 10.0 µM): 114%
residual activity ([5]; compound 100.0 µM): 116%
residual activity ([5]; compound 1000.0 µM): 109%
residual activity ([6]; compound 10.0 µM): 84%
residual activity ([6]; compound 100.0 µM): 89%
residual activity ([6]; compound 1000.0 µM): 109%
residual activity ([7]; compound 10.0 µM): 82%
residual activity ([7]; compound 100.0 µM): 94%
residual activity ([7]; compound 1000.0 µM): 103%
residual activity ([8]; compound 10.0 µM): 102%
residual activity ([8]; compound 100.0 µM): 112%
residual activity ([8]; compound 1000.0 µM): 110%
residual activity ([9]; compound 10.0 µM): 96%
residual activity ([9]; compound 100.0 µM): 107%
residual activity ([9]; compound 1000.0 µM): 116%
residual activity ([10]; compound 10.0 µM): 91%
residual activity ([10]; compound 100.0 µM): 87%
residual activity ([11]; compound 100.0 µM): 99%
residual activity ([11]; compound 1000.0 µM): 102%
residual activity ([12]; compound 10.0 µM): 103%
residual activity ([12]; compound 100.0 µM): 117%
residual activity ([12]; compound 1000.0 µM): 110%
residual activity ([13]; compound 10.0 µM): 106%
residual activity ([13]; compound 100.0 µM): 109%
residual activity ([13]; compound 1000.0 µM): 109%
residual activity ([14]; compound 10.0 µM): 91%
residual activity ([14]; compound 100.0 µM): 98%
residual activity ([14]; compound 1000.0 µM): 103%
residual activity ([15]; compound 10.0 µM): 93%
residual activity ([15]; compound 1000.0 µM): 95%
residual activity ([16]; compound 10.0 µM): 98%
residual activity ([16]; compound 100.0 µM): 105%
residual activity ([16]; compound 1000.0 µM): 95%
residual activity ([17]; compound 10.0 µM): 109%
residual activity ([17]; compound 100.0 µM): 104%
residual activity ([17]; compound 1000.0 µM): 114%
residual activity ([18]; compound 100.0 µM): 104%
residual activity ([18]; compound 1000.0 µM): 112%
residual activity ([19]; compound 10.0 µM): 92%
residual activity ([19]; compound 100.0 µM): 81%
residual activity ([19]; compound 1000.0 µM): 85%
residual activity ([20]; compound 10.0 µM): 98%
residual activity ([20]; compound 1000.0 µM): 110%
residual activity ([21]; compound 10.0 µM): 92%
residual activity ([21]; compound 100.0 µM): 100%
residual activity ([21]; compound 1000.0 µM): 99%
residual activity ([22]; compound 10.0 µM): 87%
residual activity ([22]; compound 100.0 µM): 95%
residual activity ([22]; compound 1000.0 µM): 102%
residual activity ([23]; compound 10.0 µM): 97%
residual activity ([23]; compound 100.0 µM): 99%
residual activity ([23]; compound 1000.0 µM): 103%
residual activity ([24]; compound 10.0 µM): 73%
residual activity ([24]; compound 100.0 µM): 85%
residual activity ([24]; compound 1000.0 µM): 80%
residual activity ([25]; compound 10.0 µM): 92%
residual activity ([25]; compound 100.0 µM): 101%
residual activity ([25]; compound 1000.0 µM): 101%
residual activity ([26]; compound 10.0 µM): 116%
residual activity ([26]; compound 100.0 µM): 116%
residual activity ([26]; compound 1000.0 µM): 112%
residual activity ([27]; compound 10.0 µM): 96%
residual activity ([27]; compound 100.0 µM): 99%
residual activity ([27]; compound 1000.0 µM): 96%
residual activity ([28]; compound 10.0 µM): 101%
residual activity ([28]; compound 100.0 µM): 100%
residual activity ([28]; compound 1000.0 µM): 97%
residual activity ([29]; compound 10.0 µM): 95%
residual activity ([29]; compound 100.0 µM): 107%
residual activity ([30]; compound 10.0 µM): 88%
residual activity ([30]; compound 100.0 µM): 94%
residual activity ([30]; compound 1000.0 µM): 97%
residual activity ([31]; compound 10.0 µM): 101%
residual activity ([31]; compound 100.0 µM): 103%
residual activity ([31]; compound 1000.0 µM): 104%
Compound: COC(=O)/C=C/C(=O)OC
